A melting point compilation (Tetko et al.; mined from patent text by program, amines drawn as free bases though some values may be those of a salt)

Work on `CN(C)c1ccc2c(c1Br)C(=O)C1(CC1)O2` yielded a melting point of 79 to 81 °C.
With `CN(C)c1ccc(-c2c(N3CCCC3C(=O)OC(C)(C)C)c(=O)c2=O)cc1` (centres undefined) the melting point was 115 °C.
`CC(Cc1c[nH]c2ccccc12)(NC(=O)OC1C2CC3CC(C2)CC1C3)C(=O)O` (centres undefined) gave a melting point of 210 to 215 °C.
`COc1ccccc1-n1cnnc1C(F)(F)F` gave a melting point of 62 °C.
`COc1ccc(OCc2cccc(C(=O)O)c2)cc1Cc1cnc(N)nc1N` showed a melting point of 140 °C.
For `Cc1nc(NC(=O)c2cnn3c(C(F)(F)F)cc(-c4ccc(C(F)(F)F)cc4)nc23)sc1S(N)(=O)=O`, the melting point was 303 °C.
With `Cc1cccc(C(O)CN2CCNC2=S)c1` (centres undefined) the melting point was 100 °C.
With `CC(=O)N1CCCCc2ccc(C(=O)CCC3CCN(Cc4ccccc4)CC3)cc21` the melting point was 115 to 116 °C.
Work on `CC(C)(C)NCC(O)COc1ccccc1-c1ccc(=O)[nH]n1` (centres undefined) yielded a melting point of 162 to 164 °C.
For `O=C(O)c1ncc2[nH]c3ccccc3c2n1`, the melting point was 187 to 189 °C.
In the case of `Nc1ccn(C2OC(CO)C(O)C2O)c(=O)c1Cl` (centres undefined), the melting point is reported as 197 to 199 °C.
`CCOP(=O)(Cc1ccc(C(=O)N(Cc2ccccc2)c2ccc(Cl)cc2)cc1)OCC` gave a melting point of 81 to 82 °C.
Molecule `O=C(NCc1ccccc1)c1sc2ccccc2c1Br` has a melting point of 115 to 117 °C.
Molecule `CC1(C)OC(c2ccc(S(C)(=O)=O)cc2)=C(c2cc3ccccc3s2)C1=O` has a melting point of 204 to 206 °C.
Molecule `CCCCN(CC(=O)N1c2ccccc2N(CC)C(=O)c2cnc(-c3ccccc3)nc21)C(C)(C)C` has a melting point of 70 to 72 °C.
With `CC(C)(C)OC(=O)Nc1nc2cc(N)ccc2[nH]1` the melting point was 168 °C.
Work on `COC(=O)C1(S(=O)(=O)N2CC=C(c3ccc(Br)c(C)c3)CC2)CCOCC1` yielded a melting point of 128 to 130 °C.
Work on `CC(C)(C)n1nc2nc3n(c(=O)c2c1N)CCS3` yielded a melting point of 154 to 158 °C.
`Cc1ccc2c(=O)c(-c3nnnn3C)cn(C)c2c1` showed a melting point of 254 to 255 °C.
In the case of `NC(=O)Nc1cccc2c1C(=O)c1c-2n[nH]c1-c1csc(Cl)c1`, the melting point is reported as > 300 °C.
Work on `Nc1ccc2ccc(Oc3ccccc3Br)nc2n1` yielded a melting point of 206 °C.
With `O=c1cc[nH]c2cn[nH]c12` the melting point was > 320 °C.
`Nc1nc(=O)n(C(=O)NC2CCCC2)cc1F` gave a melting point of 294 to 297 °C.
With `CCOCc1nc2c(N)nc3ccccc3c2n1NCCCNC(=O)C1CCCC1` the melting point was 75 to 77 °C.
`CC(C#N)c1cc([N+](=O)[O-])ccc1F` (centres undefined) showed a melting point of 55 to 56 °C.
`CCN1C(=O)CC2(CC(=O)N(Cc3ccccc3)C2)C1=O` (centres undefined) gave a melting point of 125 to 126 °C.
`CCOC(=O)c1ccc(C(=O)NS(=O)(=O)c2ccc(CCNC(C)=O)cc2)cn1` gave a melting point of 245 °C.
Work on `CC(C(=O)NCc1ccc(C(C)(C)C)cc1)c1ccc(NS(C)(=O)=O)c(C(=O)NCc2ccccc2)c1` (centres undefined) yielded a melting point of 79 to 81 °C.
With `CCc1nc(C)cn1C(=O)c1c(Cl)cccc1Cl` the melting point was 112 to 114 °C.
For `Cc1cc(C(C)(C)C)cc(C)c1C(=O)O`, the melting point was 160 to 164 °C.
`C[C@@H]1O[C@@]1(Cn1cncn1)c1ccc(Cl)cc1` showed a melting point of 51 to 53 °C.
`CS(=O)(=O)N1CCC(=C2c3ccccc3CCc3cccnc32)CC1` showed a melting point of 223 to 224 °C.
For `COc1ccc(C(=O)Nc2ccc(-c3ncc(-c4ccc(NC(=O)C5CCCCCC5)cc4)[nH]3)cc2)cc1`, the melting point was 311 to 313 °C.
`CCCc1c(OCCCC(=O)O)ccc(C(C)=O)c1O` gave a melting point of 130 to 133 °C.
In the case of `COCCSC(F)(F)C(O)(Cn1cncn1)c1ccc(F)cc1F` (centres undefined), the melting point is reported as 80 to 81 °C.
For `CCCCCNCc1ccc(-c2ccccc2S(=O)(=O)NC(C)(C)C)cc1`, the melting point was 69 to 70 °C.
With `CC(=O)c1c(NC(=O)c2ccc([N+](=O)[O-])cc2)cccc1C(F)(F)F` the melting point was 245 °C.
With `CCCCCCCCC(CCCCCCCC)n1c2ccsc2c2sccc21` the melting point was 60 °C.
`O=C(c1cccc(C(F)(F)F)c1)c1cc2cccc(Br)c2o1` showed a melting point of 75 to 78 °C.
With `CCN(c1ccc(Cl)cc1[N+](=O)[O-])S(=O)(=O)c1ccc(C#N)cc1` the melting point was 146 to 148 °C.
In the case of `CCCCN1CCN2c3ccc(C)cc3C(c3ccco3)=[N+]([O-])CC2C1` (centres undefined), the melting point is reported as 104 to 106 °C.
With `O=C(OCCCO)c1cc([N+](=O)[O-])cc([N+](=O)[O-])c1` the melting point was 76 °C.
Molecule `COC(=O)c1csnc1-c1cc(C(F)(F)F)cc(C(F)(F)F)c1` has a melting point of 45 to 46.5 °C.
`CCC(CO)Nc1cc(C)nc(Oc2c(C)cc(Cl)cc2C)c1C(=O)OC` (centres undefined) gave a melting point of 122 to 124 °C.
In the case of `Brc1ccc(-n2c(-c3ccccc3)ccc2-c2ccccc2)cc1`, the melting point is reported as 218 to 219 °C.
With `CON(c1ccc([N+](=O)[O-])cc1C#N)S(=O)(=O)c1ccc(C(F)(F)F)cc1` the melting point was 134 to 135 °C.
For `C[C@@H]1NC(=O)OC1(c1ccccc1)c1ccccc1`, the melting point was 264 to 266 °C.
With `COc1cc2nc(-c3cc(C)c(O)c(C)c3)[nH]c(=O)c2cc1OC` the melting point was > 300 °C.
`CNc1c(C)cc(C(C)(C)c2ccc(C(C)(C)c3cc(C)c(NC)c(C)c3)cc2)cc1C` gave a melting point of 110 to 115 °C.
Work on `COc1cc(C(=O)N2CCN(C(=O)C=C(c3ccccc3)c3ccccc3)CC2)cc(OC)c1OC` yielded a melting point of 148 to 150 °C.
With `O=C(Nc1ccc(Br)cc1)OC1CN2CCC1CC2` (centres undefined) the melting point was 218 to 220 °C.
For `CC(C)CCS(=O)(=O)NC(=O)OCc1cc(OC(C)C)nn1Cc1ccc(Cl)cc1Cl`, the melting point was 104 to 107 °C.
Work on `CC(C)C1(C(C)C)CC(c2ccc(N)cc2)=CC=C1N` yielded a melting point of 288 °C.
`Cc1ncc2n1-c1ccc(C(C)O)cc1C(c1ccccc1)=NC2` (centres undefined) gave a melting point of 223 to 225 °C.
For `CC(C)(C)OC(=O)CN1CC(c2cccs2)SCC(N)C1=O` (centres undefined), the melting point was 81 to 82 °C.
Molecule `Cn1nc(-c2c(F)cc(Cl)c(=S)n2Cc2ccccc2)c(Cl)c1OC(F)F` has a melting point of 135 to 138 °C.
In the case of `Cc1csc(-c2ncccc2C(=O)c2ccccn2)c1`, the melting point is reported as 122 to 123 °C.
Molecule `CC1(C)COP(N(CCCN(C2CC(C)(C)NC(C)(C)C2)P2OCC(C)(C)CO2)C2CC(C)(C)NC(C)(C)C2)OC1` has a melting point of 102 °C.
Work on `Cc1nc2c(N)nc3c(c2n1CC(C)C)CCNC3` yielded a melting point of 226 to 230 °C.
With `CCCC(=O)c1cnc2c(OC)cccc2c1Nc1sccc1C` the melting point was 132 to 133 °C.
Work on `CCCCOc1nc(N)c2nc(OC)n(CCS(=O)(=O)c3cccc(CC(=O)OC)c3)c2n1` yielded a melting point of 246 to 247 °C.
Work on `COCCNC(=O)C(C)Oc1ccc(Oc2ccc(C(F)(F)F)cc2)cc1` (centres undefined) yielded a melting point of 73 to 75 °C.
For `COc1c(Br)cc(Br)c(OC)c1C(=O)O`, the melting point was 108 to 110 °C.
`N#Cc1ccccc1OCCCC(=O)O` showed a melting point of 127 to 128 °C.
`NS(=O)(=O)c1cccc(NC(=O)c2cnn3c(C(F)(F)F)cc(-c4ccc(Cl)cc4)nc23)c1` gave a melting point of 260 °C.
For `O=C(O)c1cccc2c1Cc1c-2[nH]c2ccc(F)cc12`, the melting point was > 300 °C.
With `CS(=O)(=O)c1ccc(-c2ccc(Cl)n2-c2ccc(F)cc2)cc1` the melting point was 180 to 182 °C.
In the case of `Cc1cc2c(cc1C(=O)C(C)CC(=O)O)NC(=O)CO2` (centres undefined), the melting point is reported as 170 to 172 °C.
Molecule `OCCc1ncn(C(c2ccccc2)(c2ccccc2)c2ccccc2)n1` has a melting point of 127 to 129 °C.
In the case of `Cc1oc(-c2ccccc2)nc1COc1cccc2cc(NS(=O)(=O)C(F)(F)F)ccc12`, the melting point is reported as 192 to 194 °C.
Molecule `CCOC(=O)CC[C@H](NC(=O)c1ccc(CCC2CNc3nc(NC(=O)C(C)(C)C)[nH]c(=O)c3C2)s1)C(=O)OCC` (some centres undefined) has a melting point of 169 to 170 °C.
Molecule `CC(C)(C)OC(=O)N(c1ccccc1)S(=O)(=O)c1ccc2c(c1)CCC(C)(C)O2` has a melting point of 117 to 120 °C.
With `COc1ccc(O)c(Cc2cccc(C(F)(F)F)c2)c1` the melting point was 188 to 190 °C.
In the case of `Cn1c(=O)[nH]c2ccc(-c3cccc(Cl)c3)cc21`, the melting point is reported as 219 to 220 °C.
Work on `O=c1[nH]c(=Cc2ccc(OCc3ccccc3)cn2)c(=O)[nH]c1=Cc1ccccc1` yielded a melting point of 223 to 225 °C.
`Clc1ccc2c(c1)N(CC1CN3CCC1CC3)c1ccccc1S2` (centres undefined) showed a melting point of 122 °C.
For `C[C@@H](NC(=O)c1c[nH]c2ncc(-c3nn(C)c4cccnc34)nc12)C(=O)N1CC(C#N)C1`, the melting point was 194 to 198 °C.
With `CC(C)CCNC(=O)c1ccccc1-c1ccccc1CNS(=O)(=O)c1ccccc1` the melting point was 127 °C.
`O=C(c1ccc(-n2ccc(C(F)(F)F)n2)cc1)N1Cc2cccn2Cc2ccccc21` showed a melting point of 166 to 167 °C.
For `CCN(CC)C(=O)OC12Oc3cc(C(C)C)ccc3C1(O)C(=O)c1ccccc12` (centres undefined), the melting point was 127 to 130 °C.
Molecule `O=c1[nH]c2ccsc2c(=O)n1CCN1CCC(=C(c2ccc(F)cc2)c2ccc(F)cc2)CC1` has a melting point of 207 to 208 °C.
In the case of `c1ccc(-c2ncc(-c3n[nH]c(-c4cccnc4)n3)cn2)cc1`, the melting point is reported as 322 to 333 °C.
In the case of `OCc1c(CO)c(-c2ccccc2)n2c1Cc1ccccc1-2`, the melting point is reported as 169 to 171 °C.
Molecule `CC1CC2=CC(=O)CCC2(C)C2C(=O)CC3(C)C(=O)CCC3C12` (centres undefined) has a melting point of 235 to 237 °C.
For `Cc1ccc(C)n1-c1ccc2ccc3[nH]c(=O)c(=O)n(CC(=O)Nc4ccccc4)c3c2c1`, the melting point was > 260 °C.
`COc1cc(F)c(C(=O)Nc2c(Cl)cncc2Cl)cc1OC1CCCC1` showed a melting point of 143 to 144 °C.
For `Cc1ccc(-c2ccc3c(c2)C=C(C(=O)Nc2ccc(Cc4ccccn4)cc2)CCO3)cc1`, the melting point was 189 to 190 °C.
For `CC(=O)C1=CCC2C3CCC4CC=CCC4(C)C3C(=O)CC12C` (centres undefined), the melting point was 176 to 177 °C.
Molecule `CCN1C2=C(C(=O)Nc3ccccc3F)C(=O)CCN2c2ccccc21` has a melting point of 142 to 143 °C.
Work on `Oc1cc(COCc2ccccc2)ncn1` yielded a melting point of 102 to 103 °C.
Work on `CCCCCCC(C)(C)c1ccc(C2=CCCN(C)C2)c(O)c1` yielded a melting point of 126 to 127 °C.
`CC(C)(C)CNc1nnc(-c2ccccc2)c2ccccc12` gave a melting point of 216 °C.
In the case of `O=C(Nc1cccc(S(=O)(=O)NCc2cccnc2)c1)c1cnn2c(C(F)(F)F)cc(-c3ccc(C(F)(F)F)cc3)nc12`, the melting point is reported as 257 °C.
Molecule `CCCc1c(OCCCS(=O)(=O)c2ccc(C(=O)CCC(=O)O)c(F)c2)ccc(C(C)=O)c1O` has a melting point of 116 to 118 °C.
Work on `CS(=O)(=O)c1ccc(-c2cnn(-c3cccc(Cl)c3)c(=O)c2Cl)cc1` yielded a melting point of 203 to 204 °C.
With `CCn1ncc2c1ncc1c(NC)nc3ncnn3c12` the melting point was > 300 °C.
Molecule `O=C(O)C(O)c1ccccc1Nc1c(Cl)cccc1Cl` (centres undefined) has a melting point of 140 to 142 °C.
`CCC(CCCCCCCCC(C)(C)CO)N1C(=O)c2cccc([N+](=O)[O-])c2C1=O` (centres undefined) gave a melting point of 66 to 68 °C.
In the case of `Cn1ccc2ccc(-c3ccc(C(F)(F)F)cc3)cc21`, the melting point is reported as 100 °C.
